Measured values reported in ChEMBL document CHEMBL1201862, “PubChem BioAssay data set” (2004).
Active and inactive are the calls of the source.

Columns and labels:
[1] = molecular target: T1, Voltage-gated N-type calcium channel alpha-1B subunit/Amyloid beta A4 precursor protein-binding family A member 1 (Homo sapiens, UniProt Q00975+Q02410); type: protein assay
[2] = molecular target: T1, Voltage-gated N-type calcium channel alpha-1B subunit/Amyloid beta A4 precursor protein-binding family A member 1; type: protein assay; remark: listed apart in the source
Cytochrome P450 3A4 = Cytochrome P450 3A4 (Homo sapiens, UniProt P08684); details: Potency;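 also: confirmatory qHTS run detecting inhibitors and substrates of CYP3A4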
Sequence of Cytochrome P450 3A4 (P08684 whole entry): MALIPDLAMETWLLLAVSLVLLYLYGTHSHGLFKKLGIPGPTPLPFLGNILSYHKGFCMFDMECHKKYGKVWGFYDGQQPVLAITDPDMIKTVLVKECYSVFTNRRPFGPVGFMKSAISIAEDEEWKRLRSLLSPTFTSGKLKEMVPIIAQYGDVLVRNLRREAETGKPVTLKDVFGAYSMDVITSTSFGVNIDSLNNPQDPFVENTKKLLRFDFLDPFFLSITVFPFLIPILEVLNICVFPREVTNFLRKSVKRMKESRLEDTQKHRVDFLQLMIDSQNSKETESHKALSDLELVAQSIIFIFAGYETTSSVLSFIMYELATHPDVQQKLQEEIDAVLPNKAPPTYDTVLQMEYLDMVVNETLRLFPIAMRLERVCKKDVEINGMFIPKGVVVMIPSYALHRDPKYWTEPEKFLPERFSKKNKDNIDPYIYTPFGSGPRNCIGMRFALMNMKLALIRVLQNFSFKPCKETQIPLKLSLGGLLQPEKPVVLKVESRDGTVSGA

[3] = molecular target: Voltage-gated inwardly rectifying potassium channel KCNH2 (Homo sapiens, UniProt Q12809); details: Potency;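 also: confirmatory quantitative high-throughput screen measuring inhibition of hERG channel activity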
Sequence of Voltage-gated inwardly rectifying potassium channel KCNH2 (Q12809 whole entry): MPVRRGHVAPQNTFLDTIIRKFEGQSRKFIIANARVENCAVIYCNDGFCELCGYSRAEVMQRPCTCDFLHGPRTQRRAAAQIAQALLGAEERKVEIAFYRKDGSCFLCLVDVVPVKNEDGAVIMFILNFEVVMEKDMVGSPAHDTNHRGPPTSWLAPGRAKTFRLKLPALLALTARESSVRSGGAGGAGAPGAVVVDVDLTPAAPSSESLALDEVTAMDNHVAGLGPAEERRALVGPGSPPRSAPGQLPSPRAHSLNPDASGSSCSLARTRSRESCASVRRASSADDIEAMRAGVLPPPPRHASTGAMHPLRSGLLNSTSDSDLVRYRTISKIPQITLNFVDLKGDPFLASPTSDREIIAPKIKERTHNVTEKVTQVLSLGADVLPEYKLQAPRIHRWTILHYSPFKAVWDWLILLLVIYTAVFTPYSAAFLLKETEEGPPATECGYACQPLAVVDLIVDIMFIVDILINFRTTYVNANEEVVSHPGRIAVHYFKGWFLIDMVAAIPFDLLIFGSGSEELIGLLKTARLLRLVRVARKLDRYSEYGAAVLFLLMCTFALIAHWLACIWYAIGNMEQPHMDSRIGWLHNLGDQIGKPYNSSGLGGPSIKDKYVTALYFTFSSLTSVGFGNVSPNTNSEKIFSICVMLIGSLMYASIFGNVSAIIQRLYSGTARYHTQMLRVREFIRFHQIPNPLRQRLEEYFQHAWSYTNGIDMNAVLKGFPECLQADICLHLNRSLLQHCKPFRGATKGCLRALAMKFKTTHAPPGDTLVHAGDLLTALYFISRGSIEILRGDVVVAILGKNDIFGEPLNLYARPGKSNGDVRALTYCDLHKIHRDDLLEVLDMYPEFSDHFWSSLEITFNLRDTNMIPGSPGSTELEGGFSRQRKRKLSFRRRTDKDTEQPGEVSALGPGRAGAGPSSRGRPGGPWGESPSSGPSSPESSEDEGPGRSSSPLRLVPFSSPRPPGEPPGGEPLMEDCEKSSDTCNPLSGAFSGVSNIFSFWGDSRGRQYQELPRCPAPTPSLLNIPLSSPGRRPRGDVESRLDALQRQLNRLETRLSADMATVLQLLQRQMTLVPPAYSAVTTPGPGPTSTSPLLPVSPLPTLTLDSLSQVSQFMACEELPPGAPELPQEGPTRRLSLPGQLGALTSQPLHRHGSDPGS

[4] = molecular target: Dual specificity tyrosine-phosphorylation-regulated kinase 1A (Rattus norvegicus, UniProt Q63470); type: biochemical, Homo sapiens
[5] = NIH-3T3 fibroblast cytotoxicity, dose response, cytotoxicity control, cell-based, fluorescence, Alamar Blue, secondary assay (AID 2327); type: functional;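 also: NIH-3T3 mouse fibroblasts cultured with fluconazole at 8 µg/mL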
[6] = inhibitors of intracellular T. cruzi replication, confirmation, NIH3T3 host cells, beta-gal luminescence (AID 2044); type: functional, cell-based;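 also: intracellular parasites grown in NIH/3T3 mouse fibroblasts as host cells; luminescent beta-galactosidase reporter signal from transgenic T. cruzi replicating inside host cells; inhibitors lower the luminescence signal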
[7] = C. albicans growth with fluconazole, confirmation, fluorescence, retest (AID 2467); type: functional, cell-based
[8] = molecular target: Beta-2 adrenergic receptor (Homo sapiens, UniProt P07550); test: beta2AR agonists driving receptor internalization, dose response, cell-based, FAP fluorogen, flow cytometry, cherry pick 1 (AID 588763); type: functional
Sequence of Beta-2 adrenergic receptor (P07550 whole entry): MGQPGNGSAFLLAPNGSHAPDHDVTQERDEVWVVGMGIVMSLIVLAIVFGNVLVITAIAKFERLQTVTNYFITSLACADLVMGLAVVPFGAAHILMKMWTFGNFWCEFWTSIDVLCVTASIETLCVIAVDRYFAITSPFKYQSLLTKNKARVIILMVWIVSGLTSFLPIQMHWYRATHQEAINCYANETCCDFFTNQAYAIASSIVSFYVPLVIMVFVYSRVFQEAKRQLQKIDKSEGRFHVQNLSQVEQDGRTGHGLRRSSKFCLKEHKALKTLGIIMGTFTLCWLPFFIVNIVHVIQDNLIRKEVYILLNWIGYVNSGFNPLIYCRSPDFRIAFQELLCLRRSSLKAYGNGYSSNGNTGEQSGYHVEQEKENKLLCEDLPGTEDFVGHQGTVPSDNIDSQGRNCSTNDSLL

[9] = molecular target: T2, Histone-lysine N-methyltransferase NSD2 (Homo sapiens, UniProt O96028); type: biochemical
T2 sequence (O96028 whole entry): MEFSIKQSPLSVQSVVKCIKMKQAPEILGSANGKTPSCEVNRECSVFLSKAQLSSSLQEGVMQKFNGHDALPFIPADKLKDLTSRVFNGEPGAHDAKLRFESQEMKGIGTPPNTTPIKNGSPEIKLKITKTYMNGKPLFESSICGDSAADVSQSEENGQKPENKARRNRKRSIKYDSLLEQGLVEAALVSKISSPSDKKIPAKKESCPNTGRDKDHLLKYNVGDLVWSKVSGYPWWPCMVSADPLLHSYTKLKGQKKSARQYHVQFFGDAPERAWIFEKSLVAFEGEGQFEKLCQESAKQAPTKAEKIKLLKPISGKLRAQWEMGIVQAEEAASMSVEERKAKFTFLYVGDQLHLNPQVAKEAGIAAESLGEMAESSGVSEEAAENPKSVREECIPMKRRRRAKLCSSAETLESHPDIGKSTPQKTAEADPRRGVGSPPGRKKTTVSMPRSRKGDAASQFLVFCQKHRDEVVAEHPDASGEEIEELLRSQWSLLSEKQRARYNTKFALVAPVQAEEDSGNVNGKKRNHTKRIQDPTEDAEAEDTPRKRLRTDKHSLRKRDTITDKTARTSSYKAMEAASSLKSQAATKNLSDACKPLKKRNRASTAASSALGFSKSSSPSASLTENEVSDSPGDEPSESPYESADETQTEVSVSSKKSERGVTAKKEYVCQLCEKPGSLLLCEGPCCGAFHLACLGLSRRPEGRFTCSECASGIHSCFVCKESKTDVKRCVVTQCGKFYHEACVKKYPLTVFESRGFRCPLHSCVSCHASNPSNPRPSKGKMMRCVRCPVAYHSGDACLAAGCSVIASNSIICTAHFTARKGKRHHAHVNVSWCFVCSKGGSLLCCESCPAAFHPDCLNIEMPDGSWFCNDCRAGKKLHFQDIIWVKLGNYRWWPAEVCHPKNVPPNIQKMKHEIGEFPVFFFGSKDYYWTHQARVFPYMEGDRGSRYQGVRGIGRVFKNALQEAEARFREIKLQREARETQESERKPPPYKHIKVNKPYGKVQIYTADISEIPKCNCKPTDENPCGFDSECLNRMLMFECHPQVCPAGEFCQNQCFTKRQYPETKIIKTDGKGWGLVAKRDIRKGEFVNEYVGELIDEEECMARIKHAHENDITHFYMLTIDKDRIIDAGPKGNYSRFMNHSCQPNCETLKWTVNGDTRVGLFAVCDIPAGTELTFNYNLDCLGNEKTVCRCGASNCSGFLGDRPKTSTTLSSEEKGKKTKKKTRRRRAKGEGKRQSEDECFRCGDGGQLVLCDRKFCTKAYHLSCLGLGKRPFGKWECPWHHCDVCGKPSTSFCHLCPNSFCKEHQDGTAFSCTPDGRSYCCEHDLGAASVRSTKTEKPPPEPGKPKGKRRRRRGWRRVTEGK

Nonstructural protein 1 = Nonstructural protein 1 (Influenza A virus, UniProt Q194T2); type: functional, Influenza A virus (A/California/07/2009(H1N1))
Sequence of Nonstructural protein 1 (Q194T2 whole entry): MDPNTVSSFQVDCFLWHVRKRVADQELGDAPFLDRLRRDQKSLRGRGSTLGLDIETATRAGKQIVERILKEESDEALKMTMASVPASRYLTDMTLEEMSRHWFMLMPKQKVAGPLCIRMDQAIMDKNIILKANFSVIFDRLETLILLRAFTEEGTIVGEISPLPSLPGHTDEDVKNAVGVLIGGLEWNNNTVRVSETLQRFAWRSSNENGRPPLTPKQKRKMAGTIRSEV

[10] = cytotoxicity in OVCAR8 ovarian cancer cells, dose response, PAX8 project, cell-based, plate reader, dry powder samples (AID 743197); type: functional; details: OVCAR-8
[11] = NIH:OVCAR-3 ovarian cancer cell cytotoxicity, dose response, PAX8 inhibitor project, plate reader, dry powder samples (AID 743044); type: functional, cell-based
[12] = IGROV1 ovarian cancer cell cytotoxicity, dose response, PAX8 inhibitor project, plate reader, dry powder samples (AID 743043); type: functional, cell-based; details: IGROV-1
Paired box protein Pax-8 = Paired box protein Pax-8 (Homo sapiens, UniProt Q06710); test: inhibitors of PAX8-driven TPO luciferase reporter, dose response, RMG-I cells, cherry-pick (AID 687027); type: functional, cell-based;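 also: luciferase reporter driven by Pax8 target thyroperoxidase promoter measured by SteadyGlo luminescence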
Sequence of Paired box protein Pax-8 (Q06710 whole entry): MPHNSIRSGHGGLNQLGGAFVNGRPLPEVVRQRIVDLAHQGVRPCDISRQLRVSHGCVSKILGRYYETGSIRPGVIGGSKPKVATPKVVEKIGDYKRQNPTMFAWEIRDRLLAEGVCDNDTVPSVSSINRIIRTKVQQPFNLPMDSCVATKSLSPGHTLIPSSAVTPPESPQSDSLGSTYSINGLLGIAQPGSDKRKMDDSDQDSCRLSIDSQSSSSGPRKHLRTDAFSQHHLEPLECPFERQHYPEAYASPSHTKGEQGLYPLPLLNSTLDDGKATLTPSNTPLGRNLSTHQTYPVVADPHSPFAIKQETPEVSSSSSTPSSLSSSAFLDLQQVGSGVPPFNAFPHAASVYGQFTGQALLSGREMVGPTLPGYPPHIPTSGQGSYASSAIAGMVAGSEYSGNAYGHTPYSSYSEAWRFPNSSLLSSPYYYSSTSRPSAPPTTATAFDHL

[13] = molecular target: T3, Short transient receptor potential channel 4 (Mus musculus, UniProt Q9QUQ5); test: mouse TRPC4 channel activators, dose response, cell-based, HEK293 TRPC4/mu-opioid, Fluo-4 calcium (AID 434937); type: functional
T3 sequence (Q9QUQ5 whole entry): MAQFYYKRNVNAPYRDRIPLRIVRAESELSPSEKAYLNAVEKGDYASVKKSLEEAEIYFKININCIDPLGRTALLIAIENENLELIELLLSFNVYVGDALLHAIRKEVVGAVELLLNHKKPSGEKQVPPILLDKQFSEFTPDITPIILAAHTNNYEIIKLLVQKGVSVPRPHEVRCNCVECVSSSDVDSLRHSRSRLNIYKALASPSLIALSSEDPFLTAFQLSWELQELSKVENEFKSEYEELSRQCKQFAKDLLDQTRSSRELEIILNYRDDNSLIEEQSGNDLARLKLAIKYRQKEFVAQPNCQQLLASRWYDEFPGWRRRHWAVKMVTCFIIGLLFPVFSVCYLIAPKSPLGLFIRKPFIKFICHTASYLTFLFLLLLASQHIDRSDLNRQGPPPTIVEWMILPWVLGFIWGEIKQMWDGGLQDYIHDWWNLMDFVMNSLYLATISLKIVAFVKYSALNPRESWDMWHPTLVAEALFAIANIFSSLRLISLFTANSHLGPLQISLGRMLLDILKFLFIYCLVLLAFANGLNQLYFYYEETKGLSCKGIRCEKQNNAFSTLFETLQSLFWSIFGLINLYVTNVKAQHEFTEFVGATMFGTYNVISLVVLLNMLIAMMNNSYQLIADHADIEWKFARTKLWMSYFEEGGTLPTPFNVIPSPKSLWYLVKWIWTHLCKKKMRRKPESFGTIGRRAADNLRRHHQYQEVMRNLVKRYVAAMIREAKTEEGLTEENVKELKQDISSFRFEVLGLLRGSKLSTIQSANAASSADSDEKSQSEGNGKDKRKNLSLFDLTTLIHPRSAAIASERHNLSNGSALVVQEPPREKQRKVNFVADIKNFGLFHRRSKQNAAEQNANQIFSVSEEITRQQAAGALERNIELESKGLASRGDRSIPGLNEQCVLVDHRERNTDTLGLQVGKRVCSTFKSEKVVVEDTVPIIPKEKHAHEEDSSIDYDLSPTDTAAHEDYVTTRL

[14] = molecular target: Heat shock protein HSP 90-alpha (Homo sapiens, UniProt P07900); type: functional, organism-based
[15] = A cytotoxicity screen of small molecule inhibitors of the PhoP region in Salmonella typhi identified in the primary screen. [Related pubchem assays: 1850, 1864, 1985 ]; type: functional
HEK293 [16] = test: NOD1 signaling inhibitors, primary screen, cell-based, luminescence, uHTS (AID 1578); type: functional; details: Homo sapiens
HEK293 [17] = test: NOD2 signaling inhibitors in MDP-stimulated cells, cell-based, uHTS, luminescence (AID 2001); type: functional; details: Homo sapiens
HEK293 [18] = test: cells; type: functional, cell-based; details: Homo sapiens
HEK293 [19] = test: cells; type: functional, cell-based; details: Homo sapiens; remark: listed apart in the source
[20] = molecular target: T4, Adenosylmethionine-8-amino-7-oxononanoate aminotransferase (Mycobacterium tuberculosis, UniProt P9WQ81); test: Mycobacterium tuberculosis BioA enzyme inhibitor Measured in Biochemical System Using Plate Reader - 2163-02_Inhibitor_Dose_CherryPick_Activity.; type: functional, Mycobacterium tuberculosis UT205
T4 sequence (P9WQ81 whole entry): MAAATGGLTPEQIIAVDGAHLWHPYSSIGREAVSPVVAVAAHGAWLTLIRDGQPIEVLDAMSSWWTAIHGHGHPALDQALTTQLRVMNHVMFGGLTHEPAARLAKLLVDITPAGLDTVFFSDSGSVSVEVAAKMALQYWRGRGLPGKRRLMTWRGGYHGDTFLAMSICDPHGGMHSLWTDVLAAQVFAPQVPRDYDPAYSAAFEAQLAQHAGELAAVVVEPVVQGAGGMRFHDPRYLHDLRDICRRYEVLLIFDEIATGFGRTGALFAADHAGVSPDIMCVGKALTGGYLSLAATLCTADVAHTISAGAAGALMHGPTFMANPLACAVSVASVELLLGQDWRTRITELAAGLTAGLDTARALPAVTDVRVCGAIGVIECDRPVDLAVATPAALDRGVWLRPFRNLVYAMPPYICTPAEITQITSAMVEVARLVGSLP

[21] = cytotoxicity toward NIH3T3 fibroblasts, dose response, counter-screen, cell-based, ATP luminescence, mouse fibroblasts (AID 2010); type: functional;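 also: cells exposed to compound for about 90 hours before reading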

Compound: Cc1ccc(-c2cc(C(=O)N3CC(C)CC(C)C3)c3ccccc3n2)o1 (stereo not drawn)
- IC50 [1]: 11.3 µM (active)
- IC50 [2]: 5.42 µM (active)

Compound: CCCCCOC(=O)c1ccccc1C(=O)OCCCCC
- AC50 (Cytochrome P450 3A4): 12.6 µM (inconclusive)
- AC50 [3]: 39.8 µM (inconclusive)

Compound: COc1ccc2cc(C(=O)N/N=C/c3cc(OC)c(OC)c(OC)c3)[nH]c2c1
- AC50 [4]: 3.83 µM (active)

Compound: C/C(CC(C)(C)C1CCCCC1)=N\NC(N)=S
- EC50 [5]: 2.86 µM (inconclusive)
- EC50 (cells): 0.133 µM (active)
- EC50 [6]: < 0.1 µM (active)
- EC50 [7]: 2.9 µM (active)

Compound: CC(C)=CCc1c2c(c(O)c3c(=O)c(O)c(-c4ccccc4)oc13)C=CC(C)(C)O2 [SERICETIN]
- AC50 (Cytochrome P450 3A4): 15.8 µM (inconclusive)

Compound: CCOc1ccc(NC(=O)CNC(=O)c2nn(-c3ccc(OC)c(OC)c3)c(=O)c3ccccc23)cc1
- EC50 [8]: 6.57 µM (active)

Compound: COC(=O)C1=C(c2cccc(OCc3ccccc3)c2)C[C@@H]2CC[C@H]1N2C(=O)NCc1cccc(F)c1
- EC50 [8]: 4.8 µM (active)

Compound: CC(=O)Nc1ccc(C(=O)CCl)cc1
- AC50 [3]: 28.2 µM (inconclusive)

Compound: COC(=O)C1CCN(C2=C(NS(=O)(=O)c3ccc(Cl)cc3)C(=O)c3ccccc3C2=O)CC1
- AC50 [9]: 13.1 µM (active)
- IC50 (Nonstructural protein 1): 27.4 µM (active)

Compound: Cc1ccc(NC(=O)CC2=NC(=O)C(CC(=O)Nc3ccccc3F)S2)cc1 (stereo not drawn)
- AC50 [9]: 19.1 µM (active)

Compound: C[C@@H]1CN([C@H](C)CO)C(=O)c2cc(NS(=O)(=O)c3ccc(F)cc3)ccc2O[C@@H](C)CCCCO[C@H]1CN(C)Cc1ccc(C(F)(F)F)cc1
- AC50 [10]: 33.9 µM (active)
- AC50 [11]: 7.81 µM (active)
- AC50 [12]: 55.1 µM (active)
- AC50 (Paired box protein Pax-8): 5.54 µM (active)

Compound: COC(=O)c1c(C)[nH]c(C)c1C(=O)c1ccccc1Cc1ccccc1
- AC50 [3]: 35.5 µM (inconclusive)

Compound: Cc1ccc(OCC(=O)NNC(=S)NC(=O)C(C)(C)C)c(Br)c1
- EC50 [13]: 4.73 µM (active)
- AC50 [14]: 4.75 µM (active)

Compound: Cc1ccccc1Cn1c(=O)n(CCCC(=O)NCc2ccco2)c(=O)c2ccccc21
- EC50 [15]: > 50 µM (active)

Compound: Cc1c(CN(C)C)c2c(n1Cc1ccccc1)C(=O)c1ccccc1-2
- AC50 [9]: 8.45 µM (active)

Compound: O=C(Nc1cccc(F)c1)NC1CCCCC1
- EC50 [15]: > 50 µM (active)

Compound: CC(C)c1ccc(S(=O)(=O)c2cc3cc(Br)ccc3oc2=O)cc1
- EC50 (HEK293 [16]): > 20 µM (inactive)
- IC50 (HEK293 [17]): 3.73 µM (active)
- IC50 (HEK293 [18]): 10.5 µM (active)
- IC50 (HEK293 [19]): 3.29 µM (active)

Compound: CN(C)C(=O)C[C@@H]1C[C@@H]2c3cc(NC(=O)c4cccnc4)ccc3O[C@@H]2[C@@H](CO)O1
- AC50 [20]: 12.7 µM (active)

Compound: CC(C)CC#Cc1ccc2c(c1)O[C@@H](CN(C)S(=O)(=O)c1ccc(F)cc1)[C@@H](C)CN([C@@H](C)CO)S2(=O)=O
- AC50 [10]: > 70 µM (inactive)
- AC50 [11]: 25.9 µM (active)
- AC50 [12]: 51.5 µM (active)
- AC50 (Paired box protein Pax-8): 12.9 µM (active)

Compound: COc1ccccc1CNC(=O)Cn1c(=O)oc2cc(S(=O)(=O)N3CCCC3)ccc21
- EC50 [15]: > 50 µM (active)

Compound: CCOc1cc(CN2CCCC(CNC(=O)c3ccc(F)cc3)C2)ccc1OC (stereo not drawn)
- EC50 [21]: > 30 µM (not active)
- EC50 (cells): 0.206 µM (active)
- EC50 [6]: < 0.1 µM (active)

Compound: CC1(C)CC23C(=O)CCC(O)C2(C)CCC13 (stereo not drawn) [3-NOR-3-OXOPANASINSAN-6-OL]
- AC50 (Cytochrome P450 3A4): 15.8 µM (inconclusive)

Compound: COc1ccc(C2CC(=O)N(CCCN(C)CCc3ccc(OC)c(OC)c3)C2)cc1 (stereo not drawn)
- EC50 [21]: > 60 µM (not active)
- EC50 (cells): 0.02 µM (active)
- EC50 [6]: < 0.1 µM (active)

Compound: Cc1cc([N+](=O)[O-])ccc1N
- AC50 (Cytochrome P450 3A4): 39.8 µM (inconclusive)
- AC50 [3]: 17.8 µM (inconclusive)

Compound: C[C@H]1CCCCO[C@H](CN(C)C(=O)Nc2cccc3ccccc23)[C@@H](C)CN([C@@H](C)CO)C(=O)c2cc(NS(=O)(=O)c3ccc(F)cc3)ccc2O1
- AC50 [10]: > 70 µM (inactive)
- AC50 [12]: 33.8 µM (active)
- AC50 (Paired box protein Pax-8): 5.88 µM (active)
